Assay results published in US7179823B1, “5-membered n-heterocyclic compounds with hypoglycemic and hypolipidemic activity” (Takeda Pharmaceutical Company Limited, priority 1999, dated 2007).

Compared with CCOC(=O)c1cn(Cc2ccc(Oc3ccccc3)cc2)nc1OCc1ccc(OCc2nc(-c3ccco3)oc2C)c(OC)c1 [Example 321, ethyl 3-[4-[2-(2-furyl)-5-methyl-4-oxazolylmethoxy]-3-methoxybenzyloxy]-1-(4-phenoxybenzyl)-1H-pyrazole-4-carboxylate], COc1cc(COc2nn(Cc3ccc(Oc4ccccc4)cc3)cc2C(=O)O)ccc1OCc1nc(-c2ccco2)oc1C [Example 322, 3-[4-[2-(2-furyl)-5-methyl-4-oxazolylmethoxy]-3-methoxybenzyloxy]-1-(4-phenoxybenzyl)-1H-pyrazole-4-carboxylic acid] is higher in melting point: 98 to 99 °C for the first, 153 to 154 °C for the second.

Compared with CCOC(=O)/C=C/c1cn(Cc2ccc3cc(OCc4ccccc4)ccc3c2)cc1-c1ccccc1 [Example 52, ethyl(E)-3-[1-(6-benzyloxy-2-naphthylmethyl)-4-phenyl-3-pyrrolyl]propenoate], O=C(O)CCc1cn(Cc2ccc3cc(OCc4ccccc4F)ccc3c2)cc1-c1ccccc1 [Example 56, 3-[1-[6-(2-fluorobenzyloxy)-2-naphthylmethyl]-4-phenyl-3-pyrrolyl]propionic acid] is higher in melting point: 119 to 120 °C for the first, 143 to 144 °C for the second.

First: COC(=O)Cc1cn(Cc2ccc(OCc3ccccc3)cc2)nc1-c1ccc(F)cc1 [Example 318, methyl [1-(4-benzyloxybenzyl)-3-(4-fluorophenyl)-1H-pyrazol-4-yl]acetate]
Second: O=C(O)CCc1cn(Cc2ccc(OCc3ccccc3)cc2)nc1-c1ccccc1 [Example 77, 3-[1-(4-benzyloxybenzyl)-3-phenyl-1H-pyrazol-4-yl]propionic acid]
The melting point of the first is lower: 58 to 59 °C for the first, 147 to 148 °C for the second.

First: CCOc1cc(Cn2cc(CCC(=O)O)c(-c3ccccc3)c2)cc(OCc2nc(-c3ccccc3)oc2C)c1 [Example 272, 3-[1-[3-ethoxy-5-(5-methyl-2-phenyl-4-oxazolylmethoxy)benzyl]-4-phenyl-3-pyrrolyl]propionic acid]
Second: Cc1oc(-c2ccccc2)nc1COc1ccc2cc(Cn3cc(CCC(=O)O)c(-c4ccccc4)c3)ccc2c1 [Example 54, 3-[1-[6-(5-methyl-2-phenyl-4-oxazolylmethoxy)-2-naphthylmethyl]-4-phenyl-3-pyrrolyl]propionic acid]
The melting point of the first is higher: 126 to 127 °C for the first, 122 to 123 °C for the second.

First: Cc1oc(-c2ccccc2)nc1COc1ccc(CCn2cc(CCC(=O)O)c(-c3ccccc3)n2)cc1 [Example 116, 3-[1-[2-[4-(5-methyl-2-phenyl-4-oxazolylmethoxy)phenyl]ethyl]-3-phenyl-1H-pyrazol-4-yl]propionic acid]
Second: Cc1oc(-c2ccccc2)nc1CCOc1ccc(Cn2cc(CCC(=O)O)c(-c3ccccc3)n2)cc1 [Example 114, 3-[1-[4-[2-(5-methyl-2-phenyl-4-oxazolyl)ethoxy]benzyl]-3-phenyl-1H-pyrazol-4-yl]propionic acid]
The melting point of the first is lower: 85 to 86 °C for the first, 142 to 143 °C for the second.

First: O=C(O)CCc1cn(Cc2ccc(OCc3ccc(-c4ccccc4)cn3)cc2)nc1-c1ccc(F)cc1 [Example 296, 3-[3-(4-fluorophenyl)-1-[4-(5-phenyl-2-pyridylmethoxy)benzyl]-1H-pyrazol-4-yl]propionic acid]
Second: O=C(O)CCc1cn(Cc2ccc(OCc3ccc(-c4ccccc4)nc3)cc2)nc1-c1ccccc1 [Example 288, 3-[3-phenyl-1-[4-(6-phenyl-3-pyridylmethoxy)benzyl]-1H-pyrazol-4-yl]propionic acid]
The melting point of the first is higher: 162 to 163 °C for the first, 155 to 156 °C for the second.

First: Cc1oc(-c2ccccc2)nc1COc1ccc(Cn2cc(CCC(=O)O)c(-c3ccc(C(F)(F)F)cc3)n2)cc1 [Example 98, 3-[1-[4-(5-methyl-2-phenyl-4-oxazolylmethoxy)benzyl]-3-(4-trifluoromethylphenyl)-1H-pyrazol-4-yl]propionic acid]
Second: Cc1oc(-c2ccco2)nc1COc1ccc(Cn2cc(CCC(=O)O)c(-c3ccc(C(F)(F)F)cc3)n2)cc1 [Example 103, 3-[1-[4-[2-(2-furyl)-5-methyl-4-oxazolylmethoxy)benzyl]-3-(4-trifluoromethylphenyl)-1H-pyrazol-4-yl]propionic acid]
The melting point of the first is higher: 149 to 150 °C for the first, 92 to 93 °C for the second.

First: O=C(O)Cc1cn(Cc2ccc(OCc3csc(-c4ccccc4)n3)nc2)nc1-c1ccccc1 [Example 310, [3-phenyl-1-[6-(2-phenyl-4-thiazolylmethoxy)-3-pyridylmethyl]-1H-pyrazol-4-yl]acetic acid]
Second: Cc1oc(-c2ccccc2)nc1CCOc1ccc(Cn2cc(CC(=O)O)c(-c3ccccc3)n2)cn1 [Example 314, [1-[6-[2-(5-methyl-2-phenyl-4-oxazolyl)ethoxy]-3-pyridylmethyl]-3-phenyl-1H-pyrazol-4-yl]acetic acid]
The melting point of the first is lower: 118 to 119 °C for the first, 148 to 149 °C for the second.

First: CCOc1nn(Cc2cc(OCc3nc(-c4ccccc4)oc3C)no2)cc1CCC(=O)O [Example 219, 3-[3-ethoxy-1-[3-(5-methyl-2-phenyl-4-oxazolylmethoxy)-5-isoxazolylmethyl]-1H-pyrazol-4-yl]propionic acid]
Second: CCOc1nn(Cc2ccnc(OCc3nc(-c4ccccc4)oc3C)c2)cc1CCC(=O)O [Example 211, 3-[3-ethoxy-1-[2-(5-methyl-2-phenyl-4-oxazolylmethoxy)-4-pyridylmethyl]-1H-pyrazol-4-yl]propionic acid]
The melting point of the first is higher: 142 to 143 °C for the first, 114 to 115 °C for the second.

Compared with Cc1oc(-c2ccccc2)nc1COc1ccc(Cn2cc(CCC(=O)O)c(C(C)C)n2)cc1 [Example 108, 3-[3-isopropyl-1-[4-(5-methyl-2-phenyl-4-oxazolylmethoxy)benzyl]-1H-pyrazol-4-yl]propionic acid], CCCc1c(CCC(=O)O)cnn1Cc1ccc(OCc2nc(-c3ccccc3)oc2C)cc1 [Example 112, 3-[1-[4-(5-methyl-2-phenyl-4-oxazolylmethoxy)benzyl]-5-propyl-1H-pyrazol-4-yl]propionic acid] is higher in melting point: 97 to 98 °C for the first, 158 to 159 °C for the second.

First: CCOc1nn(Cc2ccc(OCc3cn4c(-c5ccccc5)cccc4n3)cc2)cc1CCC(=O)O [Example 232, 3-[3-ethoxy-1-[4-(5-phenylimidazo[1,2-a]pyridin-2-ylmethoxy)benzyl]-1H-pyrazol-4-yl]propionic acid]
Second: CCOC(=O)CCc1cn(Cc2ccc(OCc3cn4c(-c5ccccc5)cccc4n3)cc2)nc1OCC [Example 231, ethyl 3-[3-ethoxy-1-[4-(5-phenylimidazo[1,2-a]pyridin-2-ylmethoxy)benzyl]-1H-pyrazol-4-yl]propionate]
The melting point of the first is higher: 160 to 161 °C for the first, 104 to 105 °C for the second.

Compared with CCOc1nn(Cc2ccnc(OCc3nc(-c4ccco4)oc3C)c2)cc1CCC(=O)O [Example 234, 3-[3-ethoxy-1-[2-[2-(2-furyl)-5-methyl-4-oxazolylmethoxy]-4-pyridylmethyl]-1H-pyrazol-4-yl]propionic acid], CCOc1nn(Cc2cc(OCc3ccc4ccccc4n3)no2)cc1CCC(=O)O [Example 242, 3-[3-ethoxy-1-[3-(2-quinolylmethoxy)-5-isoxazolylmethyl]-1H-pyrazol-4-yl]propionic acid] is lower in melting point: 138 to 139 °C for the first, 123 to 124 °C for the second.

First: CCOC(=O)CCc1cn(Cc2cccnc2OCc2csc(-c3ccccc3)n2)nc1-c1ccccc1 [Example 299, ethyl 3-[3-phenyl-1-[2-(2-phenyl-4-thiazolylmethoxy)-3-pyridylmethyl]-1H-pyrazol-4-yl]propionate]
Second: O=C(O)CCc1cn(Cc2ccc(OCc3noc(-c4ccccc4)n3)cc2)nc1-c1ccccc1 [Example 85, 3-[3-phenyl-1-[4-(5-phenyl-1,2,4-oxadiazole-3-ylmethoxy)benzyl]-1H-pyrazol-4-yl]propionic acid]
The melting point of the first is lower: 88 to 89 °C for the first, 166 to 167 °C for the second.

Compared with O=C(O)c1cn(Cc2ccc(Oc3ccccc3)cc2)nc1OCc1ccc(Oc2ccccc2)cc1 [Example 320, 1-(4-phenoxybenzyl)-3-(4-phenoxybenzyloxy)-1H-pyrazole-4-carboxylic acid], CCOC(=O)c1cn(Cc2ccc(OCc3ccccc3)cc2)nc1-c1ccccc1 [Example 76, ethyl 1-(4-benzyloxybenzyl)-3-phenyl-1H-pyrazole-4-carboxylate] is lower in melting point: 141 to 142 °C for the first, 102 to 103 °C for the second.

Compared with CCOc1nn(Cc2ccc(OCc3cncc(-c4ccccc4)c3)cc2)cc1CCC(=O)O [Example 240, 3-[3-ethoxy-1-[4-(5-phenyl-3-pyridylmethoxy)benzyl]-1H-pyrazol-4-yl]propionic acid], CCOc1nn(Cc2ccc(OCc3ccc4ccccc4n3)cc2)cc1CCC(=O)O [Example 209, 3-[3-ethoxy-1-[4-(2-quinolylmethoxy)benzyl]-1H-pyrazol-4-yl]propionic acid] is higher in melting point: 92 to 93 °C for the first, 140 to 141 °C for the second.

First: CCOc1nn(Cc2ccc(OCn3nnc4ccccc43)cc2)cc1CCC(=O)O [Example 229, 3-[1-[4-(1H-benzotriazol-1-ylmethoxy)benzyl]-3-ethoxy-1H-pyrazol-4-yl]propionic acid]
Second: Cn1c(COc2ccc(Cn3cc(CCC(=O)O)c(-c4ccccc4)n3)cc2)nc2ccccc21 [Example 292, 3-[1-[4-(1-methyl-1H-benzimidazol-2-ylmethoxy)benzyl]-3-phenyl-1H-pyrazol-4-yl]propionic acid]
The melting point of the first is lower: 136 to 137 °C for the first, 225 to 226 °C for the second.

First: O=C(O)CCc1cn(Cc2ccc(OCc3ccc4ccccc4n3)nc2)nc1-c1ccccc1 [Example 298, 3-[3-phenyl-1-(6-(2-quinolylmethoxy)-3-pyridylmethyl]-1H-pyrazol-4-yl]propionic acid]
Second: O=C(O)CCc1cn(Cc2ccc(OCCn3ncc4ccccc4c3=O)cc2)nc1-c1ccccc1 [Example 286, 3-[1-[4-[2-[1-oxophthalazin-2(1H)-yl]ethoxy]benzyl]-3-phenyl-1H-pyrazol-4-yl]propionic acid]
The melting point of the first is higher: 166 to 167 °C for the first, 155 to 156 °C for the second.

Compared with Cc1oc(-c2ccccc2)nc1COc1ccc(Cn2cc(/C=C/C(=O)O)c(-c3ccccc3)c2)cc1 [Example 5, (E)-3-[1-[4-(5-methyl-2-phenyl-4-oxazolylmethoxy)benzyl]-4-phenyl-3-pyrrolyl]propenoic acid], O=C(O)CCc1cn(Cc2ccc(OCc3csc(-c4cnccn4)n3)cc2)cc1-c1ccccc1 [Example 16, 3-[4-phenyl-1-[4-[2-(2-pyrazinyl)-4-thiazolylmethoxy]benzyl]-3-pyrrolyl]propionic acid] is lower in melting point: 154 to 155 °C for the first, 137 to 138 °C for the second.
